This assay deals with 3-beta-hydroxysteroid-Delta(8),Delta(7)-isomerase (Homo sapiens, UniProt Q15125). As to the kind of experiment: Inhibition of EBP in HEK293T cells using zymosterol-d5 as substrate preincubated for 30 mins followed by substrate addition and measured after 4 hrs by LC-MS analysis. It is filed as cell-based.
Sequence of 3-beta-hydroxysteroid-Delta(8),Delta(7)-isomerase (Q15125 whole entry): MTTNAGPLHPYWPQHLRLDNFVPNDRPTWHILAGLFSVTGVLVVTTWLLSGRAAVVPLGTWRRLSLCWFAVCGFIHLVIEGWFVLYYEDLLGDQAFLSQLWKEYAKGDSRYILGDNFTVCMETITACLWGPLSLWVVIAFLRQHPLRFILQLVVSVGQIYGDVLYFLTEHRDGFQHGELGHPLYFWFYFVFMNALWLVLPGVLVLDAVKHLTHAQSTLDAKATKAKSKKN

The compound `CC(C)c1cc(S(=O)(=O)N2CC3(CN(C4CCOCC4)C3)C2)n(C)n1` displayed a half-maximal inhibitory concentration (IC50) of less than 100 nM.

Regarding `Cn1nc(C(F)(F)F)cc1S(=O)(=O)N1CCC2(CCN(C3CCOCC3)C2)CC1`, the IC50 was less than 100 nM.

For `O=S(=O)(c1cc(F)cc(F)c1)N1CCOC2(CCN(C3CCOCC3)C2)C1` (stereo unspecified), the IC50 was less than 100 nM.

Compound `Cn1nc(C(F)(F)F)cc1S(=O)(=O)N1CC2(CN(CC3CC4(COC4)C3)C2)C1` showed a half-inhibitory concentration (IC50) of less than 100 nM.

For the compound `O=S(=O)(c1ccc(C(F)(F)F)nc1C1CC1)N1CC2(CN(C3CCOCC3)C2)C1`, the IC50 was less than 100 nM.

In the case of `Cc1nc(C(F)(F)F)ccc1S(=O)(=O)N1CC2(CN(C(C)C3CCCO3)C2)C1` (stereo unspecified), the IC50 is less than 100 nM.

Source of the values: ChEMBL document CHEMBL5357062, “Emopamil-Binding Protein Inhibitors for Treating Multiple Sclerosis” (ACS Med Chem Lett, 2024).
